In patent US20250099472A1, “RUXOLITINIB FOR THE TREATMENT OF PRURIGO NODULARIS” (INCYTE CORPORATION, priority 2021, published 2025):

How the values were obtained:
[1] = test system: skin biopsies from active disease, untreated, prurigo nodularis patients; assay: Ruxolitinib-mediated pharmacological inhibition of PN pathophysiology: proteins secreted by cultured PN skin explants, Procarta Multiplex Immunoassay; type: cell-based, human; conditions: for percent inhibition of IFN-gamma / percent inhibition of IL-2 / percent inhibition of IL-8 (CXCL8) / percent inhibition of IL-10 / percent inhibition of IL-17 alpha (CTLA-8) / percent inhibition of IP-10 (CXCL10): culture supernatant vs DMSO
Method: Full-thickness cutaneous skin biopsies were obtained from active disease, untreated, prurigo nodularis patients. Single 4 mm-punch biopsies were obtained from the same lesion for each patient and longitudinally divided into two pieces (see FIG. 1). FIG. 1 depicts a representation of skin punch biopsies used for the JAK1/JAK2 mediated pharmacological inhibition of PN pathophysiology. Biopsies were cultured for 8 days in KBM media+CaCl2 and refreshed every 2-3 days. Ruxolitinib phosphate or DMSO (control) was added to the cell culture media. Conditioned supernatants collected during/prior to media refresh were stored at −80° C. for subsequent analysis. On day 8, cultures were terminated and tissue RNA isolated for subsequent analysis.
Collected supernatants were analyzed to quantify chemokines, cytokines, and growth factors secreted by skin explants in culture and which are involved in inflammation. A total of 51 proteins were detected and quantified in culture supernatants by Procarta Multiplex Immunoassay (Thermo Fisher, Waltham, MA). Supernatants and standards were incubated at 4° C. overnight. Assay plates were read on a Luminex 200 Instrument (Luminex Corporation, Austin, TX). The concentration was extrapolated from the antigen standard curve of each analyte. The percent inhibition determined for each analyte as the difference in protein concentration in cultures with DMSO (CD) versus those with ruxolitinib (CJ), (CD−CJ)/CD (see FIG. 2).

[2] = Solubility of ruxolitinib free base or 1:1 phosphate salt in potential solvents (HPLC); type: physicochemical; conditions: room temperature, 24 hours
Method: First, in order to determine the solubility of ruxolitinib (free base) or its 1:1 phosphate salt, approximately 5 mL of a potential solvent was added to approximately 50 mg of the API or its salt at room temperature. The mixtures were suspended and rotated on a wheel. If the mixtures became clear solutions, more solid material was added. The suspensions were then suspended over 24 hours. The samples were filtered through 0.2 micron filters. The liquid portions were collected and diluted with 50/50 water methanol/water. The concentrations of the diluted samples were analyzed by HPLC. When the free base or salt was fairly insoluble, the results are approximate only.

[3] = test system: PN skin; conditions: PN skin cultured with nemolizumab; cited from earlier work
[4] = test system: PN patients; conditions: inhibition of IL-31; cited from earlier work

With Cc1n[nH]c(C)c1-c1cnn(C2(CC#N)CN(c3cc(F)c(C(=O)N[C@@H](C)C(F)(F)F)cc3F)C2)c1 [4-[3-(cyanomethyl)-3-(3′,5′-dimethyl-1H,1′H-4,4′-bipyrazol-1-yl)azetidin-1-yl]-2,5-difluoro-N-[(1S)-2,2,2-trifluoro-1-methylethyl]benzamide] the “percent inhibition of IL-5” value ([1]; 48 hours, same assays) was 20.25% and the “percent inhibition of IL-22” value ([1]; 48 hours, same assays) was 11.16%.

In the case of N#CC[C@H](C1CCCC1)n1cc(-c2ncnc3[nH]ccc23)cn1 [ruxolitinib], the “percent inhibition of IFN-gamma” value ([1]; 48 hr) is reported as 5.0%, the “percent inhibition of IL-2” value ([1]; 48 hr) is reported as 17.8% and the “percent inhibition of IL-8 (CXCL8)” value ([1]; 48 hr) is reported as 13.7%. For the same molecule, the “percent inhibition of IL-10” value ([1]; 48 hr) was 36.2%, the “percent inhibition of IL-17 alpha (CTLA-8)” value ([1]; 48 hr) was 63.9% and the “percent inhibition of IP-10 (CXCL10)” value ([1]; 48 hr) was 9.7%. For the same molecule, the “percent inhibition of IFN-gamma” value ([1]; 96 hr) was 11.6%, the “percent inhibition of IL-2” value ([1]; 96 hr) was 16.6% and the “percent inhibition of IL-8 (CXCL8)” value ([1]; 96 hr) was “** (no measureable inhibition)”. For the same molecule, the “percent inhibition of IL-10” value ([1]; 96 hr) was 39.9%, the “percent inhibition of IL-17 alpha (CTLA-8)” value ([1]; 96 hr) was 57.6% and the “percent inhibition of IP-10 (CXCL10)” value ([1]; 96 hr) was 60.3%. For the same molecule, the Solubility ([2]; C12-15 alcohol benzoate, approximate, listed as Free Base) was 150 µg/mL, the Solubility ([2]; Caprylic triglyceride, approximate, listed as Free Base) was 150 µg/mL and the Solubility ([2]; Dimethicone, approximate, listed as Free Base) was 150 µg/mL. It also gave a Solubility ([2]; Isopropanol, listed as Free Base) of 450 µg/mL, a Solubility ([2]; Isopropyl myristate, approximate) of 80 µg/mL and a Solubility ([2]; Isosorbide dimethyl ether, listed as Free Base) of 300 µg/mL. It also gave a Solubility ([2]; Mineral oil, approximate) of 80 µg/mL, a Solubility ([2]; Olelyl alcohol, approximate, listed as Free Base) of 80 µg/mL and a Solubility ([2]; Propylene glycol, listed as Free Base) of 18200 µg/mL. It also gave a Solubility ([2]; Water/glycerin/trolamine (40/40/20)) of 13600 µg/mL.

B1: nemolizumab: an IL-31 inhibitor; anti-IL-31 antibody (antibody, chains of the INN, looked up)
heavy: QVQLVQSGAEVKKPGASVKVSCKASGYTFTGYIMNWVRQAPGQGLEWMGLINPYNGGTDYNPQFQDRVTITADKSTSTAYMELSSLRSEDTAVYYCARDGYDDGPYTLETWGQGTLVTVSSASTKGPSVFPLAPSSKSTSGGTAALGCLVKDYFPEPVTVSWNSGALTSGVHTFPAVLQSSGLYSLSSVVTVPSSNFGTQTYTCNVDHKPSNTKVDKTVERKSCVECPPCPAPPVAGPSVFLFPPKPKDTLMISRTPEVTCVVVDVSQEDPEVQFNWYVDGVEVHNAKTKPREEQFNSTFRVVSVLTVVHQDWLNGKEYKCKVSNKGLPAPIEKTISKTKGQPREPQVYTLPPSQEEMTKNQVSLTCLVKGFYPSDIAVEWESNGQPENNYKTTPPMLDSDGSFFLYSKLTVDKSRWQEGNVFSCSVMHEALHNHYTQKSLSLSP
light: DIQMTQSPSSLSASVGDRVTITCQASEDIYSFVAWYQQKPGKAPKLLIYNAQTEAQGVPSRFSGSGSGTDFTLTISSLQPEDFATYYCQHHYDSPLTFGGGTKVEIKRTVAAPSVFIFPPSDEQLKSGTASVVCLLNNFYPREAKVQWKVDNALQSGNSQESVTEQDSKDSTYSLSSTLTLSKADYEKHKVYACEVTHQGLSSPVTKSFNRGEC
In the case of B1, the “IL-17 levels in lesional skin” value [3] is given as “reduction in IL-17 levels” and the “pruritus and skin lesions in PN patients” value [4] is given as “improvement in pruritus and skin lesions”.
